Experimental data from ChEMBL document CHEMBL1144508, “Inhibitory activity of stilbenes on Alzheimer's beta-amyloid fibrils in vitro” (Bioorg Med Chem, 2007).
Calls of active or inactive are those of the source. The rule behind the calls is not given here.

Assays:
[1] = (§1) Antiamyloidogenic activity assessed as inhibition of beta amyloid (25-35) fibril formation after 6 hrs; design: species or system Homo sapiens
Homo sapiens = species on record: Homo sapiens; test: as §1

With `Oc1ccc(/C=C/c2cc(O)cc(O)c2)cc1` [RESVERATROL] as the compound, how does the EC50 [1] read?
The EC50 was 5.6 µM.

Which EC50 [1] does the source give for `OC[C@H]1O[C@@H](Oc2cc(O)cc(/C=C/c3ccc(O)cc3)c2)[C@H](O)[C@@H](O)[C@@H]1O` [PICEID] here?
Its EC50 is 4.7 µM.

With `COc1cc(/C=C/C(=O)CC(=O)/C=C/c2ccc(O)c(OC)c2)ccc1O` [CURCUMIN] as the compound, how does the EC50 [1] read?
Its EC50 is 10 µM.

Which Activity (Homo sapiens) does the source give for `O=c1oc2c(O)c(O)cc3c(=O)oc4c(O)c(O)cc1c4c23` here?
The Activity was “inactive”.
